The values below come from article PMC7587432, “IP7-SPX Domain Interaction Controls Fungal Virulence by Stabilizing Phosphate Signaling Machinery” (mBio, 2020).

Each structure is given as a SMILES string.

For the test, the target named is T1, Pho81 (Pho81SPX-GFP; CnPho81) (Cryptococcus neoformans, UniProt J9VLD1).
T1 construct: gene CNAG_02541; full-length Pho81 (N-terminal SPX, ankyrin repeat and GDE domains) with C-terminal GFP, expressed from the GDE2 promoter in C. neoformans H99; whole cell lysate, endogenous Pho80/Pho85/Pcl6/7 present
As to the kind of experiment: affinity capture from cell lysate on 5-PCP-IP5-conjugated resin, anti-GFP Western blot. Type of test: biochemical. Particulars: binds; resin-immobilised analog of 5-PP-IP5; Pi-conjugated resin as control; 50 mM Tris pH 7.5, 150 mM NaCl, 1 mM EDTA, 4 °C, 2 h; SPX domain lysine surface cluster. For orientation: Immunoblotting shows a protein as a band on a membrane.

Take `O=P(O)(O)CP(=O)(O)O[C@H]1[C@H](OP(=O)(O)O)[C@@H](OP(=O)(O)O)[C@@H](OP(=O)(O)O)[C@@H](OP(=O)(O)O)[C@@H]1OP(=O)(O)O` [5-PCP-IP5]: the “affinity capture from cell lysate on 5-PCP-IP5-conjugated resin, anti-GFP Wester” value is recorded as “native Pho81 binds to the 5-PCP-IP5, but not to the Pi, resin”.
